Type in all cases: cell-based
Test [1] relates to three M. tuberculosis strains (H37Rv, INHR, RMPR). Description: microbe, parasite or virus in culture. The settings on record: Mycobacterium tuberculosis, stated for all three strains together.
Test [2] has as its system M. tuberculosis pan-susceptible H37Rv (ATCC 27294). Description: microbe, parasite or virus in culture. To be noted: REMA, 7 days at 37°C.
In test [3] the test system is J774A.1 macrophage cell line (ATCC TIB-67). Briefly: Cytotoxicity assay (resazurin). To be noted: Mus musculus, J774.A1.
Setting [4] is: Mycobacterium tuberculosis, 168 h, read-out: MIC.
The mark [5] stands for this setting: J774A.1 cells, concentration maintaining viability of 50% of the cells.
The mark [6] stands for this setting: Mycobacterium tuberculosis, 168 h.

SMILES strings stand for the structures. In brackets after ≈: the same amount, converted by molar mass. Read-outs that look alike come from different tables or passages of the source. Where only a bound is given, the exact number is not on record here.

As for `O=C1C(Cl)=C(Cl)C(=O)c2ccccc21` [Compound 1, 2,3-Dichloronaphthalene-1,4-dione], the MIC in test [1] and in test [2] (setting [4]) was 111 µM (≈ 25.1 µg/mL) each time. Further, the half-inhibitory concentration (IC50) in test [3] was determined as 103 µM.

With `CC1(C)CCC2=C(O1)C(=O)c1ccccc1C2=O` [Compound 2, 2,2-Dimethyl-3,4-dihydro-2H-benzo[g]chromene-5, 10-dione], the MIC in test [1] is 103 to 207 µM (≈ 25 to 50.1 µg/mL); in test [2] (setting [4]), 103 µM (≈ 25 µg/mL). The same molecule returned an IC50 in test [3] (setting [5]) of 285 µM.

With `CC1(C)CC2=C(O1)C(=O)c1ccccc1C2=O` [Compound 3, 2,2-Dimethyl-2,3-dihydronaphtho[2,3-b]furan-4,9-dione], the MIC in test [1] and in test [2] (setting [4]) was 54.8 µM (≈ 12.5 µg/mL) in each case. In addition, in test [3] (setting [5]), the IC50 is above 877 µM.

In the case of `C=CCOC1=CC(=O)c2ccccc2C1=O` [Compound 4, 2-(Allyloxy)naphthalene-1,4-dione], the MIC in test [2] (setting [6]) was determined as 58.4 µM (≈ 12.5 µg/mL). Also, the IC50 in test [3] (setting [5]) came to 173 µM.

In the case of `NC1=CC(=O)c2ccccc2C1=O` [Compound 5, 2-Aminonaphthalene-1,4-dione], in test [2] (setting [4]), the MIC is 72.2 µM (≈ 12.5 µg/mL). Further, the IC50 in test [3] is above 1160 µM.

Consider `O=C1C=C(Nc2ccccc2)C(=O)c2ccccc21` [Compound 6, 2-(Phenylamino)naphthalene-1,4-dione], for which the MIC in test [2] (setting [6]) came out at 110 µM (≈ 27.5 µg/mL); in test [2] (read-out: MIC) it was 100.4 µM (≈ 25 µg/mL). The IC50 in test [3] (setting [5]) is above 803 µM.

Take `NNC(=O)c1ccncc1` [INH, isoniazid, reference compound]: the MIC in test [2] (setting [4]) was found to be 0.438 µM (≈ 0.0601 µg/mL). Besides, inhibition in test [3] (setting [5]) was half-maximal at 3730 µM (IC50).

For `CO[C@H]1/C=C/O[C@@]2(C)Oc3c(C)c(O)c4c(O)c(c(/C=N/N5CCN(C)CC5)c(O)c4c3C2=O)NC(=O)/C(C)=C\C=C\[C@H](C)[C@H](O)[C@@H](C)[C@@H](O)[C@@H](C)[C@H](OC(C)=O)[C@@H]1C` [RIF, rifampicin, reference compound], in test [2] (setting [4]), the MIC was found to be 0.608 µM (≈ 0.5 µg/mL). The molecule also showed an IC50 in test [3] (setting [5]) above 2490 µM.

The values are drawn from publication PMC5900025, “Naphthoquinone Derivatives as Scaffold to Develop New Drugs for Tuberculosis Treatment” (Frontiers in Microbiology, 2018).
